# Test results reported in US20210253598A1, “ARYL ANNULATED MACROCYCLIC INDOLE DERIVATIVES” (priority 2017, published 2021).
# “And” between values parts separate entries of the source, which are not always exact repeats. Equal entries are not always repeated. Structures can show the parent of a compound that is named as a salt. Where two headings read alike, the source gives them in different places.
# What was measured:
# [1] = target: T1, MCL-1 (Homo sapiens, UniProt Q07820, K194A/K197A/R201A); assay: Protein-protein interaction assay MCL-1/Noxa BH3 peptide, TR-FRET (MCL-1 assay, Assay 1); assay type: binding; details: MCL-1 Assay [M] (median), MBP-MCL-1 / Noxa BH3 peptide
# Method in brief: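 Human MBP-fused MCL-1 (aa 173-321; 1 nM final) was pre-incubated 10 min at 22 °C with compound in pH 7 Tris buffer containing NaCl, KF, Tween-20, DTT and BGG. Displacement of biotinylated Noxa BH3 peptide was read by TR-FRET (anti-MBP-Eu cryptate/streptavidin-XL665) after 1 h at 22 °C plus overnight at 4 °C. IC50 came from four-parameter fits against DMSO controls.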
# [2] = target: BCL-XL (Homo sapiens, UniProt Q07817); assay: Protein-protein interaction assay BCL-XL/Bad BH3 peptide, TR-FRET (BCL-XL assay, Assay 2); assay type: binding; details: His-BCL-XL / Bad BH3 peptide, median
# Description: Protein-Protein Interaction Assay: BCL-XL/Bad BH3 Peptide (BCL-XL Assay)
# The dose-dependent inhibition by the compounds described in this invention of the interaction between BCL-XL and the BH3 domain of Bad (both human) was determined using a steady state binding competition assay with time-resolved fluorescence energy transfer (TR-FRET) readout. For that purpose BCL-XL (amino acids 1-212, C-terminal fused to a hexahistidine (6×His) tag (SEQ ID 3) and a synthetic Bad BH3-derived peptide of sequence Biotin-PEG2-PEG2-[sequence]-Nle-[sequence]-amide (SEQ ID 4) served as protein receptor and tracer ligand respectively. The recombinant BCL-XL protein (expressed in E. coli) was purchased from BPS Bioscience (San Diego, Calif., USA). The Bad BH3-derived peptide can be obtained from e.g. Biosyntan (Berlin, Germany).
# For that, 100-fold concentrated DMSO solutions were prepared by serial dilutions (1:3.4) of a 2 mM stock solution in a clear, 384-well microtiter plate (Greiner Bio-One, Frickenhausen, Germany). From there, 50 nl were transferred in a dark test plate (Greiner Bio-One, Frickenhausen, Germany). The assay was initiated by addition of 2 μl of a 2,5-fold concentrated His-BCL-XL solution (usually for a 1 nM end concentration in 5 μl reaction volume) in aqueous assay buffer [50 mM Tris/HCl pH 7, 100 mM sodium chloride (NaCl), 50 mM potassium fluoride (KF), 0.005% Tween-20, 2 mM DTT, 0.1% bovine gamma globulin (BGG)] to the compounds in the assay plate. This was followed by a 10-minute incubation step at 22° C. for pre-equilibration of the putative complex between His-BCL-XL and the compounds.
# The mixture was incubated in the dark for one hour at 22° C. and then overnight at 4° C. The formation of BCL-XL/Bad complexes was determined by measuring the resonance energy transfer of the anti-His- Eu-cryptate antibody to the streptavidin-XL665 present in the reaction. For that purpose, the fluorescence emission at 620 nm and 665 nm after excitation at 330-350 nm was measured in a TR-FRET measuring instrument, for instance a Rubystar or a Pherastar (both from BMG Lab Technologies, Offenburg, Germany) or a Viewlux (Perkin-Elmer). The ratio of the emission at 665 nm and at 622 nm was used as indicator of the amount of BCL-XL/Bad complexes present.
# The resulting data (ratio) were normalized, taking 0% inhibition as the mean value of control measurements (usually 32 data points) where all reagents were included. In this case 50 nl DMSO were used instead of compounds. […] IC50 values were determined by regression analysis based on a 4 parameter equation (minimum, maximum, IC50, Hill; Y=Max+(Min−Max)/(1+(X/IC50)^Hill) using the Screener Software (Genedata).
# [3] = target: BCL-2 (Homo sapiens, UniProt P10415); assay: Protein-protein interaction assay BCL-2/Bad BH3 peptide, TR-FRET (BCL-2 assay, Assay 3); assay type: binding; details: His-BCL-2 / Bad BH3 peptide, median
# [4] = tested on: SUDHL5; assay: Induction of caspase-3/7 activity in SUDHL5 cells (Assay 4); assay type: cell-based; details: SUDHL5, 3 hours treatment, Caspase-Glo 3/7, median, read-out: Caspase SUDHL5 [M] (median)
# Method in brief: (§1)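 DLBCL lines SUDHL5 and SUDHL10 were treated with compound for 3 h at 37 °C. Caspase-3/7 activity was then read by Caspase-Glo 3/7 luminescence after 1 h at 37 °C. Medium-only background was subtracted and values were normalized to the mean of DMSO-treated cells.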
# [5] = tested on: SUDHL10; assay: Induction of caspase-3/7 activity in SUDHL10 cells (Assay 4); assay type: cell-based; details: SUDHL10, 3 hours treatment, Caspase-Glo 3/7, median, read-out: Caspase SUDHL10 [M] (median)
# Method in brief: as §1
# [6] = tested on: SUDHL5; assay: Induction of cytotoxicity in SUDHL5 cells, CellTiter-Glo (Assay 6); assay type: cell-based; details: SUDHL5, 5 hours incubation, median, read-out: Cytotox SUDHL5 [M] (median)
# Method in brief: (§2)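 Cells plated and held overnight at 37 °C, then compound-treated for 5 h at 37 °C. Viability measured by CellTiter-Glo luminescence after 15 min shaking at room temperature; cell-free medium as background control.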
# [7] = tested on: SUDHL10; assay: Induction of cytotoxicity in SUDHL10 cells, CellTiter-Glo (Assay 6); assay type: cell-based; details: SUDHL10, 5 hours incubation, median, read-out: Cytotox SUDHL10 [M] (median)
# Method in brief: as §2
# [8] = tested on: SUDHL5; assay: Anti-proliferative effect in SUDHL5 cells, CellTiter-Glo (Assay 7); assay type: cell-based; details: SUDHL5, 72 hours incubation, CellTiter-Glo, median, read-out: Antiproli SUDHL5 [M] (median)
# Method in brief: (§3)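 Cells plated and incubated overnight at 37° C, then exposed to compound for 72 hours. Viability read as CellTiter-Glo luminescence, with a day 0 plate as time-zero reference. IC50 calculated with day 0 values and DMSO control values as references.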
# [9] = tested on: SUDHL10; assay: Anti-proliferative effect in SUDHL10 cells, CellTiter-Glo (Assay 7); assay type: cell-based; details: Homo sapiens, SU-DHL10, SUDHL10, 72 hours incubation, median, read-out: Antiproli SUDHL10 [M] (median)
# Description: Assessment of the Anti-Proliferative Effect of Compounds in Different Cell Lines
# The impact of compounds on the proliferation of different cell lines was assessed using the CellTiter-Glo® Luminescent Cell Viability reagent from Promega (G7573).
# In parallel, cells were plated in a reference (day 0) plate for time zero determination. Cells were incubated in a humidified incubator at 37° C. overnight.
# Rim wells were excluded. The cells were incubated for 72 hours in a humidified incubator at 37° C. The day 0 plate was measured by adding 30 μL/well of CTG solution (CellTiter-Glo® Luminescent Cell Viability reagent, Promega G7573) to time zero wells in the reference plate followed by a 10 minutes incubation and luminescence reading at 0.1 ms. using the PHERAstar FS microplate reader (BMG Labtech).
# After 72 hours incubation, the treated plates were measured in the same way as the day 0 plate mentioned above. The Bella DRC Master Sheet was used to calculate IC50s, with CI=day 0 values and C0=DMSO control values.
# [10] = tested on: MV-4-11; assay: Anti-proliferative effect in MV-4-11 cells, CellTiter-Glo (Assay 7); assay type: cell-based; details: MV-4-11, 72 hours incubation, CellTiter-Glo, several values per example, read-out: Antiproli MV-4-11
# Method in brief: as §3
# [11] = tested on: AMO-1; assay: Anti-proliferative effect in AMO-1 cells, CellTiter-Glo (Assay 7); assay type: cell-based; details: AMO-1, 72 hours incubation, CellTiter-Glo, several values per example, read-out: Antiproli AMO-1
# Method in brief: as §3
# [12] = tested on: A2780; assay: Anti-proliferative effect in A2780 cells, CellTiter-Glo (Assay 7); assay type: cell-based; details: Homo sapiens, A2780, 72 h, A2780, 72 hours incubation, CellTiter-Glo; several values per example; read-out: Antiproli A2780
# Method in brief: as §3
# [13] = target: T1, MCL-1; assay: Protein-compound interaction assay, surface plasmon resonance (SPR assay, Assay 8); assay type: binding; details: geometric mean; for Kd: KD [M]
# Text: Protein-Compound Interaction Assay (SPR Assay)
# The ability of the compounds described in this invention to bind to MCL-1 may be determined using surface plasmon resonance (SPR). This allows for the quantification of binding in terms of the equilibrium dissociation constant (KD [M]), as well as association and dissociation rate constants (kon [1/M 1/s] and koff [1/s], respectively). The measurements may be performed using Biacore® T200 or Biacore® S200 instruments (GE Healthcare).
# Briefly, carboxymethylated dextran biosensor chips (Series S Sensor Chip CM5, GE Healthcare) were activated with 1-ethyl-3-(3-dimethylaminopropyl)-carbodiimide hydrochloride (EDC) and N-hydroxysuccinimide (NHS) according to the supplier's instructions. MBP-MCL-1 was diluted in 1×PBS-P+ (GE Healthcare) and injected on the activated chip surface. Subsequently, a solution of 1 M ethanolamine-HCl (GE Healthcare) was injected to block unreacted groups, resulting in approximately 400-2500 response units (RU) of immobilized protein. A reference surface was generated by treatment with NHS-EDC and ethanolamine-HCl. […] Compounds were injected for 60 s followed by a dissociation time of up to 1000 s.
# The double-referenced sensorgrams were fit to a simple reversible Langmuir 1:1 reaction mechanism as implemented in the Biacore® T200 and S200 evaluation software (T200 evaluation software version 2.0 and S200 evaluation software version 1.0, GE Healthcare).
# [14] = the molecule shown is the open-chain precursor, crosslinker bond, 11-membered ring
# [15] = SPR, immobilized MBP-MCL-1, 25° C.
# Sequence of BCL-2 (P10415 1-211): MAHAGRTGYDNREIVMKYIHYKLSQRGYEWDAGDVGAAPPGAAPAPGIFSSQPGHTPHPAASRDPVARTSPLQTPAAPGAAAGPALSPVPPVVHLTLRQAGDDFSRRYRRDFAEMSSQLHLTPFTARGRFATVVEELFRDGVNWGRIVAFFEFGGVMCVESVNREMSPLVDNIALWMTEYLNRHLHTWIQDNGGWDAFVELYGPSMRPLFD
# T1 sequence (Q07820 173-321 K194A/K197A/R201A, looked up): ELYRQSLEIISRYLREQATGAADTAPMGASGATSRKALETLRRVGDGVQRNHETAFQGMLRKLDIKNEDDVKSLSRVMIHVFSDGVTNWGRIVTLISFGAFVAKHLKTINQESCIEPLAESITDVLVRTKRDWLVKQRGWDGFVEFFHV
# Sequence of BCL-XL (Q07817 1-212): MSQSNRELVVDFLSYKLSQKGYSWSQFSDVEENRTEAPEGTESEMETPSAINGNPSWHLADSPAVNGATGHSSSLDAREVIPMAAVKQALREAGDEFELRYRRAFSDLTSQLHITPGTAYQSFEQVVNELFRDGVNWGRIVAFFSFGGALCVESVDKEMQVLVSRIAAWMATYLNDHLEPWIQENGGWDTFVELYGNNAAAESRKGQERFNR
IC50 [1],IC50 [2],IC50 [3],"EC50 ([4]; Homo sapiens, SU-DHL-5, 3 h)","EC50 ([5]; Homo sapiens, SU-DHL10, 3 h)","IC50 ([8]; Homo sapiens, SU-DHL-5, 72 h)",IC50 [9],Structure (SMILES),IC50 [11],"IC50 ([11]; Homo sapiens, AMO1, 72 h)",further results
4.6e-09 M,> 20 µM,18 µM,2.1e-06 M,5.2e-06 M,3.3e-06 M,3e-06 M,"Cc1nn(C)c2c1-c1c(F)ccc3c(CCCOc4cccc5cc(F)ccc45)c(C(=O)O)n(c13)Cc1ccccc1COC2 (racemic) [Example 81, (rac)-15-Fluoro-1-(3-((6-fluoronaphthalen-1-yl)oxy)propyl)-12,14-dimethyl-4,9,11,12-tetrahydrobenzo[3,4]pyrazolo[4′,3′:9,10][1]oxa[6]azacycloundecino[8,7,6-hi]indole-2-carboxylic Acid]",7.08 µM and 4.13 µM,6.52 µM,"IC50 ([6]; Homo sapiens, SU-DHL-5, 5 h): 2.5e-06 M; IC50 ([7]; Homo sapiens, SU-DHL10, 5 h): 4e-06 M; IC50 ([10]; Homo sapiens, MV4-11, 72 h): 7.69 µM; IC50 [10]: 7.82 µM and 6.41 µM"
2.7e-08 M,–,–,–,–,–,–,"Cc1c2c(nn1C)COCc1ccccc1Cn1c(C(=O)O)c(CCCOc3cccc4ccccc34)c3cccc-2c31 (single isomer, unassigned; enantiomer 2) [Example 3, 4,5-Dimethyl-17-[3-(naphthalen-1-yloxy)propyl]-5,7,9,14-tetrahydroindolo[7,1-fg]pyrazolo[3,4-d][2,8]benzoxazacycloundecine-16-carboxylic acid-N-ethylethanamine Salt (Enantiomer 2)]",–,–,"EC50 [4]: > 1.2e-05 M; EC50 [5]: > 3.3e-05 M; IC50 [6]: 8.3e-06 M; IC50 [7]: > 3.3e-05 M; IC50 [8]: 7.7e-06 M; Kd [13, 15]: 1.7e-07 M; koff [13, 15]: 0.046 s⁻¹; kon [1/M 1/s] [13, 15]: 2.8E5 1/M 1/s"
2.3e-09 M,> 20 µM,> 20 µM,–,–,–,–,"Cc1c2c(nn1C)COCc1ccccc1Cn1c(C(=O)O)c(CCCOc3cccc4ccccc34)c3cccc-2c31 (single isomer, unassigned; enantiomer 1) [Example 2, 4,5-Dimethyl-17-[3-(naphthalen-1-yloxy)propyl]-5,7,9,14-tetrahydroindolo[7,1-fg]pyrazolo[3,4-d][2,8]benzoxazacycloundecine-16-carboxylic acid-N-ethylethanamine Salt (Enantiomer 1)]",–,–,"EC50 [4]: 2e-06 M; EC50 [5]: 7.7e-06 M; IC50 [6]: 2.3e-06 M; IC50 [7]: 7.3e-06 M; IC50 [8]: 2.9e-06 M; Kd [13, 15]: 6e-09 M; kon [1/M 1/s] [13, 15]: 1.1E7 1/M 1/s; koff ([13]; read-out: koff [1/s], SPR, immobilized MBP-MCL-1, 25° C.): 0.068 s⁻¹"
3.2e-09 M,> 20 µM,17.8 µM,1.4e-06 M,6.6e-06 M,2e-06 M,2.1e-06 M,"CCc1nn(C)c2c1-c1c(F)ccc3c(CCCOc4cccc5cc(F)ccc45)c(C(=O)O)n(c13)Cc1ccccc1COC2 (racemic) [Example 90, (rac)-14-Ethyl-15-fluoro-1-(3-((6-fluoronaphthalen-1-yl)oxy)propyl)-12-methyl-4,9,11,12-tetrahydrobenzo[3,4]pyrazolo[4′,3′:9,10][1,6]oxaazacycloundecino[8,7,6-hi]indole-2-carboxylic Acid]",10.3 µM and 6.91 µM,5.58 µM,"IC50 ([10]; Homo sapiens, MV4-11, 72 h): 4.98 µM; IC50 [10]: 8.53 µM and 6.99 µM"

# Continued, compound first:
Structure (SMILES),IC50 [1],IC50 [2],IC50 [3],"EC50 ([4]; Homo sapiens, SU-DHL-5, 3 h)","EC50 ([5]; Homo sapiens, SU-DHL10, 3 h)","IC50 ([8]; Homo sapiens, SU-DHL-5, 72 h)",IC50 [9],IC50 [11],"IC50 ([11]; Homo sapiens, AMO1, 72 h)",further results
"CCc1c2c(nn1C)COCc1ccccc1Cn1c(C(=O)O)c(CCCOc3cccc4c3CCC4)c3ccc(F)c-2c31 (racemic) [Example 78, (rac)-1-(3-((2,3-Dihydro-1H-inden-4-yl)oxy)propyl)-14-ethyl-15-fluoro-13-methyl-4,9,11,13-tetrahydrobenzo[3,4]pyrazolo[4′,3′:9,10][1]oxa[6]azacycloundecino[8,7,6-hi]indole-2-carboxylic]",1.9e-09 M,> 20 µM,> 20 µM,2.1e-06 M,5.2e-06 M,3.3e-06 M,1.9e-06 M,6.82 µM,6.61 µM,"IC50 ([6]; Homo sapiens, SU-DHL-5, 5 h): 2.1e-06 M; IC50 ([7]; Homo sapiens, SU-DHL10, 5 h): 3.7e-06 M; IC50 [12]: 5.04 µM"
CCOC(=O)c1[nH]c2c(-c3c(CO)nn(C)c3CC)c(Cl)ccc2c1CCCOc1cccc2cc(F)ccc12,–,–,–,–,–,–,–,–,–,"ring closure, isolated yield ([14]; 1,2-bis(bromomethyl)benzene/Cs2CO3, THF/MeCN, 36.4 mM, 50.0 °C): 94%"
CCOC(=O)c1[nH]c2c(-c3c(CC)nn(C)c3CO)c(Cl)ccc2c1CCCOc1cccc2cc(F)ccc12,–,–,–,–,–,–,–,–,–,"ring closure, isolated yield ([14]; 1,2-bis(bromomethyl)benzene/Cs2CO3, THF/MeCN, 35.9 mM, 50.0 °C): 62%"
CCOC(=O)c1[nH]c2c(-c3c(CO)nn(C)c3C)c(Cl)ccc2c1CCCOc1cccc2ccccc12,–,–,–,–,–,–,–,–,–,"ring closure, isolated yield ([14]; 2,3-bis(chloromethyl)pyrazine/Cs2CO3/NaI, MeCN, 167.0 mM, 70.0 °C): 13%; ring closure, isolated yield ([14]; 2,3-bis(chloromethyl)pyridine HCl/Cs2CO3/NaI, MeCN, 94.0 mM, 75.0 °C): 10%"
